Values joined by “and” are separate entries in the source; they are usually repeats but may differ in a detail not shown here. Equal entries are not always repeated. Non-standard residues stand in square brackets, D forms with d. Residues, ends and D or L forms follow the SMILES beside them.
Legend:
Aβ(1–42) [1] = target: T1, Aβ(1–42) (Homo sapiens, UniProt P05067); experiment: Thioflavin T (ThT) fibril formation assay; format: biochemical; details: 20 μM Aβ(1–42), 20 μM peptide (method: 31 μg/ml), 20 μM ThT, 10 mM sodium phosphate pH 7.4, 37°C, compared after 5 h with Aβ(1–42)-only control
T1 construct: Aβ(1–42), N-terminally biotinylated Aβ(1–42) and FITC-Aβ(1–42) were purchased from Bachem; purchased Bachem (Heidelberg, Germany)
T1 sequence (P05067 672-713 limits assumed): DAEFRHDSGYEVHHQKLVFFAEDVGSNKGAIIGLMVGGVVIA
Method: 20 μM Aβ(1–42) was mixed with 20 μM Thioflavin T (ThT) and 31 μg/ml DB3 or DB3DB3 in 10 mM sodium phosphate buffer, pH 7.4. The assay was performed using a non-binding 96 well plate (Greiner Bio-One, Frickenhausen, Germany). ThT fluorescence was measured every 15 min at λex = 440 nm and λem = 490 nm in a temperature-controlled plate reader (Polarstar Optima, BMG, Offenburg, Germany) at 37°C with 1 min agitation before every measurement. Each value was background corrected using the ThT fluorescence of a peptide solution without Aβ(1–42). To investigate the influence of DB1 to DB5 on Aβ fibril formation, a Thioflavin T (ThT) assay was performed. In an aqueous environment the benzothiazole dye has a low fluorescence. […] The emission at 490 nm is directly proportional to the quantity of amyloid fibrils. Fibril formation of Aβ can be followed in real time by measuring the ThT fluorescence. Therefore, the inhibitory effects of the D-peptides DB1 to DB5 and D3 were investigated by co-incubating these peptides with Aβ(1–42) and performing the ThT assay. Fluorescence emission data were compared after 5 h incubation, because after this period the Aβ(1–42) control (without added peptide) reached its fluorescence maximum. […] 20 μM Aβ(1–42) was mixed with 20 μM DB1 to DB5 or 10 μM DB3DB3 and the ThT fluorescence was monitored. Aβ(1–42) without peptide addition was taken as the control. The ThT fluorescence of all samples were compared after 5 h, where the control, Aβ(1–42) only, reached its maximum in fluorescence emission. The Mann-Whitney-U-test was used for statistical analysis. * p < 0.05; ** p < 0.01; *** p < 0.001.

PC12 cells = experiment: MTT cell viability assay; format: cell-based, rat; details: 5 μM peptide without Aβ, 24 h
Method: Rat pheochromocytoma PC12 cells (Leibniz Institute DSMZ, Braunschweig, Germany) were cultivated in DMEM medium supplemented with 10% fetal bovine serum and 5% horse serum. 10,000 cells per well were seeded on collagen-coated 96 well plates (Gibco, Life technology, Carlsberg, USA) and incubated in a 95% humidified atmosphere with 5% CO2 at 37°C for 24 h. […] DB peptide was then added at different concentrations and incubated for further 40 min at 21°C and 600 rpm agitation before addition to the PC12 cells. […] Cell viability was then measured using the Cell proliferation Kit I (MTT) (Roche, Basel, Switzerland) according to the manufacturer’s instruction. The absorbance of the formazan product was determined by measuring at 570 nm after subtracting the absorption at 660 nm. For absorption measurements, a Polarstar Optima plate reader (BMG, Offenburg, Germany) was used. All results were normalized to cells that were treated with buffer only.
The cell viability assay was performed using PC12 cells in a MTT test. […] The absorption of buffer treated cells was set to 100% cell viability. […] The Mann-Whitney-U-test was used for statistical analysis. * p < 0.05; ** p < 0.01; *** p < 0.001.

Aβ(1–42) [2] = target: T1, Aβ(1–42); experiment: Aβ aggregation inhibition ELISA; format: biochemical; details: 400 nM Aβ(1–42), 500 mM Tris pH 7.4, 23 h, 37°C, aggregate-specific ELISA, logistic fit, three independent experiments; read-out: EC50 of inhibition of Aβ aggregate formation
Method: Freshly dissolved monomeric Aβ(1–42) (400 nM in 500 mM Tris-buffer pH 7.4) was incubated with and without DB peptides in different concentrations (0.01, 0.05, 0.1, 0.5, 1, 5, 10, 50 and 100 μM for DB3 or half of the molar concentrations in case of DB3DB3) in a humidity chamber for 23 h at 37°C. The aggregation was analyzed by an enzyme-linked immunosorbent assay (ELISA). NP27 antibody in bicarbonate/carbonate buffer was used to coat the ELISA plate overnight. Then the plate was washed in PBS-Tween buffer (1x PBS + 0.05% Tween) and blocked for 2 h at room temperature with 5% casein buffer. After washing, Aβ aggregate solutions were added to the plate and incubated for 1 h at room temperature. The plate was washed again and bound Aβ aggregates were detected by biotinylated 6E10/HRP-avidin mediated immunoreaction (BioLegend, San Diego, CA USA) using TMB as detection reagent. […] Mean value and standard error were calculated from three independent experiments. EC50 was calculated by fitting the data to a logistic dose response function.
Fig 5 Inhibition of Aβ fibril formation and Aβ aggregation disassemble by DB3 and DB3DB3. A) Monomeric Aβ(1–42) (400 nM) was mixed with different concentrations of DB3 (0.01, 0.05, 0.1, 0.5, 1, 5, 10, 50, 100 μM) and the aggregation state of Aβ was analyzed using an Aβ aggregate specific ELISA. […] All data were determined in triplicate. […]

Aβ(1–42) oligomers = target: T2, Aβ(1–42) oligomers (Homo sapiens, UniProt P05067); experiment: QIAD assay (Aβ oligomer elimination); format: biochemical; details: 10 μM DB3DB3, 80 μM Aβ(1–42) preincubated 4.5 h, 40 min with peptide, density gradient centrifugation, RP-HPLC, triplicate
T2 construct: Aβ(1–42), N-terminally biotinylated Aβ(1–42) and FITC-Aβ(1–42) were purchased from Bachem; purchased Bachem (Heidelberg, Germany)
T2 sequence (P05067 672-713 limits assumed): as above
Method: The quantitative determination of interference with Aβ(1–42) aggregate size distribution (QIAD) was performed as described before. In brief, 80 μM Aβ(1–42) was incubated in 10 mM sodium phosphate buffer, pH 7.4 for 4.5 h at 22°C with 600 rpm agitation. Aβ(1–42) aggregation was continued for an additional 40 min with or without DB peptide. The obtained partial size distribution was analyzed by applying density gradient centrifugation. 100 μl of the incubated sample was placed on top of a gradient with 5 to 50% iodixanol (Optiprep, Axis-shield, Oslo, Norway) and separated at 259.000 x g for 3 h at 4°C using an ultracentrifuge (Optima MAX-XP, Beckman Coulter, Brea, USA). Fourteen fractions of 140 μl were taken from top to bottom. […] For quantification of the Aβ(1–42) amount in each fraction, reversed-phase high performance liquid chromatography (RP-HPLC) was performed using a Zorbax SB-300 C8 column (Agilent, Böblingen, Germany) connected to an Agilent 1260 Infinity system using 30% (v/v) acetonitrile with 0.1% (v/v) trifluoroacetic acid (TFA) as the mobile phase with a flow of 1 ml/min and a column temperature of 80°C. […] The UV absorption at 214 nm was measured. For quantification of the Aβ(1–42) amount, the area under the peak representing Aβ(1–42) was calculated and the molar concentration was determined using a calibration curve. […]

[3] = target: T3, preformed Aβ(1–42) aggregates (Homo sapiens, UniProt P05067); experiment: Aβ aggregate disassembly ELISA; format: biochemical
T3 construct: Aβ(1–42), N-terminally biotinylated Aβ(1–42) and FITC-Aβ(1–42) were purchased from Bachem; purchased Bachem (Heidelberg, Germany)
T3 sequence (P05067 672-713 limits assumed): as above
Method: Freshly dissolved monomeric Aβ(1–42) (400 nM in 500 mM Tris-buffer pH 7.4) was incubated in a humidity chamber for 22 h at 37°C in order to preform Aβ(1–42) aggregates. These preformed aggregates were coincubated with D-peptide in different concentrations (0.01, 0.05, 0.1, 0.5, 1, 5, 10, 50, 100 μM for DB3 or with half of the molar concentrations in case of DB3DB3) for additional 22 h at 37°C. The content of Aβ aggregates was measured and evaluated in the same way as the aggregation inhibition ELISA.
Fig 5 Inhibition of Aβ fibril formation and Aβ aggregation disassemble by DB3 and DB3DB3. A) Monomeric Aβ(1–42) (400 nM) was mixed with different concentrations of DB3 (0.01, 0.05, 0.1, 0.5, 1, 5, 10, 50, 100 μM) and the aggregation state of Aβ was analyzed using an Aβ aggregate specific ELISA. For DB3DB3 half of the molar concentrations compared to DB3 were used. Aβ without DB3 and DB3DB3 addition was taken as control. For DB3 an EC50 of 6 μM was calculated using a logistic fit model. DB3DB3 inhibited the formation of Aβ fibrils more efficiently with an EC50 of 7 nM. B) The disassembly properties of DB3 and DB3DB3 were measured using an Aβ aggregation specific ELISA. Monomeric Aβ(1–42) (400 nM) was preincubated in order to form fibrils and mixed with nine different concentrations of DB3 (0.01, 0.05, 0.1, 0.5, 1, 5, 10, 50, 100 μM). For DB3DB3, the molar concentrations were half those used for DB3. […] DB3DB3 disassembled Aβ aggregates at the lowest concentration […]. Thus, the EC50 could not be determined, but is < 10 nM. All data were determined in triplicate. The Mann-Whitney-U-test was performed for statistical analysis. * p< 0.05; ** p < 0.01; *** p < 0.001
The Aβ aggregate disassembly ELISA was used to analyze the effect of DB3 and DB3DB3 on preformed Aβ aggregates (Fig 5B). […] The Aβ aggregates specific ELISA was used to quantify Aβ aggregates. […] The results of measured Aβ aggregates normalized to the Aβ control were plotted against the peptide concentration. The EC50 was calculated by a logarithmic dose response function.

transgenic mice = details: ref [10], [15], [16], cited from earlier work
Text: We have previously selected the 12mer all-D-enantiomeric peptide D3 via mirror image phage display. In vitro, D3 binds to amyloid plaques, reduces Aβ aggregation to regular fibrils, eliminates Aβ oligomers and converts preformed fibrils into non-amyloidogenic, non-fibrillar, non-toxic aggregates. In vivo, the plaque load and cerebral inflammation of transgenic mice is reduced after injection of D3 into the brain and cognitive impairment of transgenic mice is improved after oral application. The original phage library, from which D3 was selected, coded ...

RPITRLQTHEQR [DB5, all-D D3 derivative, C-terminally amidated]
inhibition of Aβ(1–42) fibril formation (ThT fluorescence) (Aβ(1–42) [1]): 76%

RPITRLHTDRNR [DB1, all-D D3 derivative, C-terminally amidated]
inhibition of Aβ(1–42) fibril formation (ThT fluorescence) (Aβ(1–42) [1]): 63%

CC[C@@H](C)[C@@H](NC(=O)[C@H]1CCCN1C(=O)[C@H](N)CCCNC(=N)N)C(=O)N[C@@H](C(=O)N[C@H](CCCNC(=N)N)C(=O)N[C@H](CC(C)C)C(=O)N[C@H](CCCNC(=N)N)C(=O)N[C@@H](C(=O)N[C@H](Cc1c[nH]cn1)C(=O)N[C@H](CCC(N)=O)C(=O)N[C@H](CC(N)=O)C(=O)N[C@H](CCCNC(=N)N)C(=O)N[C@H](CCCNC(=N)N)C(=O)N1CCC[C@@H]1C(=O)N[C@@H](C(=O)N[C@@H](C(=O)N[C@H](CCCNC(=N)N)C(=O)N[C@H](CC(C)C)C(=O)N[C@H](CCCNC(=N)N)C(=O)N[C@@H](C(=O)N[C@H](Cc1c[nH]cn1)C(=O)N[C@H](CCC(N)=O)C(=O)N[C@H](CC(N)=O)C(=O)N[C@H](CCCNC(=N)N)C(N)=O)[C@H](C)O)[C@H](C)O)[C@H](C)CC)[C@H](C)O)[C@H](C)O [DB3DB3] (H-[dR][dP][dI][dT][dR][dL][dR][dT][dH][dQ][dN][dR][dR][dP][dI][dT][dR][dL][dR][dT][dH][dQ][dN][dR]-NH2)
effect of peptide alone on PC12 cell viability (PC12 cells): not toxic
EC50 (Aβ(1–42) [2]): 8 nM and 7 nM
reduction of the content of Aβ oligomers (Aβ(1–42) oligomers): 82%
disassembly of the Aβ aggregates ([3]; 10 nM DB3DB3 added to 400 nM Aβ, compared to Aβ in the absence of peptide): 80%
EC50 ([3]; 400 nM Aβ(1–42) preincubated 22 h at 37°C, then with peptide 22 h (24 h) at 37°C, ELISA, triplicate): < 10 nM

RPRTRLRTHQNR [DB4, all-D D3 derivative, C-terminally amidated]
inhibition of Aβ(1–42) fibril formation (ThT fluorescence) (Aβ(1–42) [1]): no effect

RPRTRLHTHRNR [D3, 12mer all-D-enantiomeric peptide selected via mirror image phage display, C-terminally amidated]
plaque load and cerebral inflammation of transgenic mice (transgenic mice; injection of D3 into the brain): reduced
cognitive impairment of transgenic mice (transgenic mice; oral application): improved
inhibition of Aβ(1–42) fibril formation (ThT fluorescence) (Aβ(1–42) [1]): 30%

RPITTLQTHQNR [DB2, all-D D3 derivative, C-terminally amidated]
inhibition of Aβ(1–42) fibril formation (ThT fluorescence) (Aβ(1–42) [1]): 49%
